{
  "source": "ChEMBL document CHEMBL1201862",
  "about": "“PubChem BioAssay data set” (2004)",
  "type_in_all_cases": "functional",
  "key": {"[1]": {"target": "Ribosomal protein S6 kinase alpha-3 (Homo sapiens, UniProt P51812)"}, "[2]": {"target": "Dual specificity protein kinase CLK2 (Homo sapiens, UniProt P49760)"}, "[3]": {"target": "Tyrosine-protein kinase JAK2 (Homo sapiens, UniProt O60674)"}, "[4]": {"target": "Phosphorylase b kinase gamma catalytic chain, liver/testis isoform (Homo sapiens, UniProt P15735)"}, "[5]": {"target": "5'-AMP-activated protein kinase catalytic subunit alpha-1 (Homo sapiens, UniProt Q13131)"}, "[6]": {"target": "Protein kinase C delta type (Homo sapiens, UniProt Q05655)", "sequence (Q05655 whole entry)": "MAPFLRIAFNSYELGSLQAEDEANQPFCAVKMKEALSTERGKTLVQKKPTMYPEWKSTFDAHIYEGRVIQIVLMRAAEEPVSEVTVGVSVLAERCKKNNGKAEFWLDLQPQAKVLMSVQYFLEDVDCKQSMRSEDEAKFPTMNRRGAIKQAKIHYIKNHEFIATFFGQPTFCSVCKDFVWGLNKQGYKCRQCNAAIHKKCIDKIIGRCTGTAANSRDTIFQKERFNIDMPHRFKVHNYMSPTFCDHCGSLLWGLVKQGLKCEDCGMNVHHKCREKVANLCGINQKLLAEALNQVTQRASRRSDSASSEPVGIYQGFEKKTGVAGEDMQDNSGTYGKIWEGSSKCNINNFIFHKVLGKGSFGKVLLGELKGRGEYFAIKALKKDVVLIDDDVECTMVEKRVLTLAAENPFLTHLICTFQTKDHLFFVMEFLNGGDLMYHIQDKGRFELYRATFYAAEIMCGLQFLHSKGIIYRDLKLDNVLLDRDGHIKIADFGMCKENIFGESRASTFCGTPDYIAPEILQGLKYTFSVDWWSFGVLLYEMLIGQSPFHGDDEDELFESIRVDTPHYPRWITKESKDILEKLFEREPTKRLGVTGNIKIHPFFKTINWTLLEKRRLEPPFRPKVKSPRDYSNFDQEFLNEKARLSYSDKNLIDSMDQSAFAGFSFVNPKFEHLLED"}, "[7]": {"target": "Calcium/calmodulin-dependent protein kinase type II subunit gamma (Homo sapiens, UniProt Q13555)"}, "[8]": {"target": "Tyrosine-protein kinase receptor TYRO3 (Homo sapiens, UniProt Q06418)", "sequence (Q06418 whole entry)": "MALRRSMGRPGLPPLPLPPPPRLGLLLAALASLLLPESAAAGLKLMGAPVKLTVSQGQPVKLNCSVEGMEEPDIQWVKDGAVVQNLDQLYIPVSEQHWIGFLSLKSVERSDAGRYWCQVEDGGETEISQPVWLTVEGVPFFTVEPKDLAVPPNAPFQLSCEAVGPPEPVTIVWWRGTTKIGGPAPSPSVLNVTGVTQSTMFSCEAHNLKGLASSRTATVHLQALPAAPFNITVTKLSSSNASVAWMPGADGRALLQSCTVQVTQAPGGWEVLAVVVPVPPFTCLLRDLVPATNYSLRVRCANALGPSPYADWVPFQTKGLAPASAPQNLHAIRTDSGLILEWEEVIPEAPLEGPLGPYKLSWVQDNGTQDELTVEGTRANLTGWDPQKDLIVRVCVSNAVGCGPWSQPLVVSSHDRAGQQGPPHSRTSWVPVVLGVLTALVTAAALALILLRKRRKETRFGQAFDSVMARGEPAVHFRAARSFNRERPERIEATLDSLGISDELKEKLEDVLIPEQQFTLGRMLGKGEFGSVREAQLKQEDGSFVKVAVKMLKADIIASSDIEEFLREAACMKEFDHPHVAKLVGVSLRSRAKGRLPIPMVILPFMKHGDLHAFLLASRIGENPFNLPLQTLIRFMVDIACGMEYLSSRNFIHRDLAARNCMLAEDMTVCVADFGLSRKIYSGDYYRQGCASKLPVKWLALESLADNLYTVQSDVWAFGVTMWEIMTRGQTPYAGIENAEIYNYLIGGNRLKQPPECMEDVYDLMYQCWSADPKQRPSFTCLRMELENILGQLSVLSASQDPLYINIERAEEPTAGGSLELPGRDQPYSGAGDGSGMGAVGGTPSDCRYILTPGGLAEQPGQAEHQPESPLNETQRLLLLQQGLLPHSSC"}, "[9]": {"target": "Tyrosine-protein kinase Lck (Homo sapiens, UniProt P06239)", "sequence (P06239 whole entry)": "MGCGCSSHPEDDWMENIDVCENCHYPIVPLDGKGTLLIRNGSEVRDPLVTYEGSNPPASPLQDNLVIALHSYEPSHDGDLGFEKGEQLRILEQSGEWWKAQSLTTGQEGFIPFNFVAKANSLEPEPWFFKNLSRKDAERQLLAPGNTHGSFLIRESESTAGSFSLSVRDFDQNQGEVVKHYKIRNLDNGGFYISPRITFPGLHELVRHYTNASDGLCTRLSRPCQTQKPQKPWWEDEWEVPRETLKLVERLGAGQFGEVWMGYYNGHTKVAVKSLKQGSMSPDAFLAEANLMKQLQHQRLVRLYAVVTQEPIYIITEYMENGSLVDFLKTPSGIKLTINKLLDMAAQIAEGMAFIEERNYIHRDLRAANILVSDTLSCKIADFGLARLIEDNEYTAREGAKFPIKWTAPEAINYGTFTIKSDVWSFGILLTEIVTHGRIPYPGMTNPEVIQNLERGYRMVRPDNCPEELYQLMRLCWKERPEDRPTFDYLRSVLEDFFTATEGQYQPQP"}, "SRSF protein kinase 1": {"target": "SRSF protein kinase 1 (Homo sapiens, UniProt Q96SB4)"}, "[10]": {"target": "Mitogen-activated protein kinase 8 (Homo sapiens, UniProt P45983)"}, "[11]": {"target": "MAP kinase-activated protein kinase 5 (Homo sapiens, UniProt Q8IW41)"}, "[12]": {"target": "Cell division cycle 7-related protein kinase (Homo sapiens, UniProt O00311)"}, "[13]": {"target": "Mast/stem cell growth factor receptor Kit (Homo sapiens, UniProt P10721)", "sequence (P10721 whole entry)": "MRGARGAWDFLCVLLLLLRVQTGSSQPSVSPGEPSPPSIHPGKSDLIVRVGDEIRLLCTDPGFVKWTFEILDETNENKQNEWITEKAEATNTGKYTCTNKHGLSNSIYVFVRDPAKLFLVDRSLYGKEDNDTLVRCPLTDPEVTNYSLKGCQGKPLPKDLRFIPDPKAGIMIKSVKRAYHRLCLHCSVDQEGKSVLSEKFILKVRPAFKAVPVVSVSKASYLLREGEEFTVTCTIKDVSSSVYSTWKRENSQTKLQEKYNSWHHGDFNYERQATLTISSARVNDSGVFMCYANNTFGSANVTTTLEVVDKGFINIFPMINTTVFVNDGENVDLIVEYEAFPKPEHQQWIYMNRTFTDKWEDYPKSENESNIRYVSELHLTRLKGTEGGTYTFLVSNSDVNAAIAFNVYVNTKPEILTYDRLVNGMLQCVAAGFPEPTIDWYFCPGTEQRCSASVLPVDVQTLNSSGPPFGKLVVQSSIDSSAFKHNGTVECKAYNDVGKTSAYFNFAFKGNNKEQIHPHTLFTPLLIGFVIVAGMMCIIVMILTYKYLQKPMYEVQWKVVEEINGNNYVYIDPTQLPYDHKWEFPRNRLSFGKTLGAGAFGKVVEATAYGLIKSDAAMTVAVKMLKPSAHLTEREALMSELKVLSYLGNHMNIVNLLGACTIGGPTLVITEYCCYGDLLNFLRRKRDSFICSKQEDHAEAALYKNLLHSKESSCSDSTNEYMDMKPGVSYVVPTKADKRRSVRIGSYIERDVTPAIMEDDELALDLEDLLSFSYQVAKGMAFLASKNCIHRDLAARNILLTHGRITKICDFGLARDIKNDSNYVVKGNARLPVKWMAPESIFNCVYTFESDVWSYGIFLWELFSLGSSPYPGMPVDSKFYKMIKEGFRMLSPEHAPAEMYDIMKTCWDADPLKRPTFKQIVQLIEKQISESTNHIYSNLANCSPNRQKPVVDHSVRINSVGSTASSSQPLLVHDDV"}, "[14]": {"target": "Serine/threonine-protein kinase PAK 1 (Homo sapiens, UniProt Q13153)", "sequence (Q13153 whole entry)": "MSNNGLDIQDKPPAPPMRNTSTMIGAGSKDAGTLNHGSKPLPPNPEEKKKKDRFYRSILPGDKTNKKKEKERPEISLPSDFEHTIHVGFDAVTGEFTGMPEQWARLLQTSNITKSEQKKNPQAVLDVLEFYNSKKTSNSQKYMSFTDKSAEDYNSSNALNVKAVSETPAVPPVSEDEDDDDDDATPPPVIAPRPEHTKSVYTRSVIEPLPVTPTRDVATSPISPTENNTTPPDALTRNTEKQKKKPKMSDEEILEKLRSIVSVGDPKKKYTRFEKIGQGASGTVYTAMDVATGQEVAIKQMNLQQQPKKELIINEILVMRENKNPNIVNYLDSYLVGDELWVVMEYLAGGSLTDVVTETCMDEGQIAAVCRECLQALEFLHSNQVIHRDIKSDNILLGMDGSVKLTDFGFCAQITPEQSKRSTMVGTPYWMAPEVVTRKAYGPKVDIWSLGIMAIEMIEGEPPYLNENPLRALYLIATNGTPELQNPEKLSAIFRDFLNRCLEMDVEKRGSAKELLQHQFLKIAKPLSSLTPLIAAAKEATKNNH"}, "[15]": {"target": "Mitogen-activated protein kinase 9 (Homo sapiens, UniProt P45984)"}, "[16]": {"target": "Tyrosine-protein kinase ITK/TSK (Homo sapiens, UniProt Q08881)"}, "[17]": {"target": "Serine/threonine-protein kinase TAO1 (Homo sapiens, UniProt Q7L7X3)"}, "Insulin receptor": {"target": "Insulin receptor (Homo sapiens, UniProt P06213)"}, "[18]": {"target": "Non-receptor tyrosine-protein kinase TYK2 (Homo sapiens, UniProt P29597)"}, "[19]": {"target": "Dual specificity tyrosine-phosphorylation-regulated kinase 3 (Homo sapiens, UniProt O43781)"}, "[20]": {"target": "Hepatocyte growth factor receptor (Homo sapiens, UniProt P08581)"}, "[21]": {"target": "Receptor tyrosine-protein kinase erbB-2 (Homo sapiens, UniProt P04626)", "assay": "Navigating the Kinome. Panel member name: ERBB2"}, "[22]": {"target": "Serine/threonine-protein kinase Chk1 (Homo sapiens, UniProt O14757)"}, "[23]": {"target": "MAP kinase-interacting serine/threonine-protein kinase 2 (Homo sapiens, UniProt Q9HBH9)"}, "[24]": {"target": "Calcium/calmodulin-dependent protein kinase type II subunit beta (Homo sapiens, UniProt Q13554)"}, "[25]": {"target": "Vascular endothelial growth factor receptor 2 (Homo sapiens, UniProt P35968)"}, "[26]": {"target": "Cyclin-dependent kinase 5 (Homo sapiens, UniProt Q00535)", "sequence (Q00535 whole entry)": "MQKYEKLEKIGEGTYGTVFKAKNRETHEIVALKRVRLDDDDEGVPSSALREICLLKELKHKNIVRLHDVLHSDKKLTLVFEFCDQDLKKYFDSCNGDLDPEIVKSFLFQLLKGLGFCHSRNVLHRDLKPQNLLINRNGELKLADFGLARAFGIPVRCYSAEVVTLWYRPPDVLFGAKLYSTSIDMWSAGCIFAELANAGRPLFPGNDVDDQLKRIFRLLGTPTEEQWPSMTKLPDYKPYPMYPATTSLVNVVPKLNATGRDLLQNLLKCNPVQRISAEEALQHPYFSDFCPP"}, "Ephrin type-A receptor 2": {"target": "Ephrin type-A receptor 2 (Homo sapiens, UniProt P29317)"}, "[27]": {"target": "Mitogen-activated protein kinase 1 (Homo sapiens, UniProt P28482)", "sequence (P28482 whole entry)": "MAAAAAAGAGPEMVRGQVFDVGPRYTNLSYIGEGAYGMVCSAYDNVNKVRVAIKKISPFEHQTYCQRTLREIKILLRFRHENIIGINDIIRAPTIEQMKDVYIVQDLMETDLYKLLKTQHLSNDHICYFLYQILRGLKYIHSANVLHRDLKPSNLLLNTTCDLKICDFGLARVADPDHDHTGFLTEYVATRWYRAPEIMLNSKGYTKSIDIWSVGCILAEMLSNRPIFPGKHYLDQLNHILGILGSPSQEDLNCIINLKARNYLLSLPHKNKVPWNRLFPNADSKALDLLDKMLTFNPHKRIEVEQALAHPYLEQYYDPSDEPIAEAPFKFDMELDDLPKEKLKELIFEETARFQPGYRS"}, "[28]": {"target": "Serine/threonine-protein kinase Nek4 (Homo sapiens, UniProt P51957)"}, "[29]": {"target": "cAMP-dependent protein kinase catalytic subunit PRKX (Homo sapiens, UniProt P51817)", "sequence (P51817 whole entry)": "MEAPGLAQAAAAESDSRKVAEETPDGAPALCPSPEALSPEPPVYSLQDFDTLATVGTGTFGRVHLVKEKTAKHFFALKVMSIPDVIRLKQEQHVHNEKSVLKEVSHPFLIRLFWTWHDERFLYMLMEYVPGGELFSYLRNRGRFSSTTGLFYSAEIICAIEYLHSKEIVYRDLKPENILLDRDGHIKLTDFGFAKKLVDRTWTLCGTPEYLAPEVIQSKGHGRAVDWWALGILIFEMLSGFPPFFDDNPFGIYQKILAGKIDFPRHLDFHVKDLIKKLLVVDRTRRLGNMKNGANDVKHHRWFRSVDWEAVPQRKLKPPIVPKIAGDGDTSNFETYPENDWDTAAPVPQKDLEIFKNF"}, "Aurora kinase B": {"target": "Aurora kinase B (Homo sapiens, UniProt Q96GD4)"}, "[30]": {"target": "Interleukin-1 receptor-associated kinase 4 (Homo sapiens, UniProt Q9NWZ3)"}, "[31]": {"target": "RAC-alpha serine/threonine-protein kinase (Homo sapiens, UniProt P31749)"}, "[32]": {"target": "Tyrosine-protein kinase Fyn (Homo sapiens, UniProt P06241)"}, "[33]": {"target": "Homeodomain-interacting protein kinase 4 (Homo sapiens, UniProt Q8NE63)"}, "[34]": {"target": "3-phosphoinositide-dependent protein kinase 1 (Homo sapiens, UniProt O15530)"}, "[35]": {"target": "Vascular endothelial growth factor receptor 1 (Homo sapiens, UniProt P17948)"}, "[36]": {"target": "STE20-like serine/threonine-protein kinase (Homo sapiens, UniProt Q9H2G2)"}, "[37]": {"target": "Glycogen synthase kinase-3 beta (Homo sapiens, UniProt P49841)", "sequence (P49841 whole entry)": "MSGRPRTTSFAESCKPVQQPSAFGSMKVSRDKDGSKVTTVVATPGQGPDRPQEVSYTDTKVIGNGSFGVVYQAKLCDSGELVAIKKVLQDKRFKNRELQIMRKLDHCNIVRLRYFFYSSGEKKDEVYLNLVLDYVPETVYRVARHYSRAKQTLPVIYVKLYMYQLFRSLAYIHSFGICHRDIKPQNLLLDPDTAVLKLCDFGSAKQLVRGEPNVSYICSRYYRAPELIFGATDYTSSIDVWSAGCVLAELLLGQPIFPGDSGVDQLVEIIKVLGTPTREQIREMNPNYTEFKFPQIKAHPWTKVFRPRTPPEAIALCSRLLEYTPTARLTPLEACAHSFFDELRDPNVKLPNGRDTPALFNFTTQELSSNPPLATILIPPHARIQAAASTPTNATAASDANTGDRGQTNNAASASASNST"}, "[38]": {"target": "BDNF/NT-3 growth factors receptor (Homo sapiens, UniProt Q16620)"}, "[39]": {"target": "Receptor tyrosine-protein kinase erbB-4 (Homo sapiens, UniProt Q15303)"}, "[40]": {"target": "Lymphokine-activated killer T-cell-originated protein kinase (Homo sapiens, UniProt Q96KB5)"}, "[41]": {"target": "Mitogen-activated protein kinase kinase kinase kinase 4 (Homo sapiens, UniProt O95819)"}, "[42]": {"target": "Dual specificity tyrosine-phosphorylation-regulated kinase 1A (Homo sapiens, UniProt Q13627)"}},
  "note": "Calls of active or inactive are those of the source.",
  "data": [
    {"smiles": "NC1CCCCC1Nc1nccc(-c2c[nH]c3ncccc23)n1", "note": "(stereo unspecified)", "values": [
      {"measurement": "Ki", "setting": "[1]", "value": "100 nM (active)"},
      {"measurement": "Ki", "setting": "[2]", "value": "39.8 nM (active)"},
      {"measurement": "Ki", "setting": "[3]", "value": "794 nM (active)"},
      {"measurement": "Ki", "setting": "[4]", "value": "158 nM (active)"},
      {"measurement": "Ki", "setting": "[5]", "value": "794 nM (active)"},
      {"measurement": "Ki", "setting": "[6]", "value": "200 nM (active)"},
      {"measurement": "Ki", "setting": "[7]", "value": "79.4 nM (active)"},
      {"measurement": "Ki", "setting": "[8]", "value": "> 2000 nM (inactive)"},
      {"measurement": "Ki", "setting": "[9]", "value": "> 2510 nM (inactive)"},
      {"measurement": "Ki", "setting": "SRSF protein kinase 1", "value": "1260 nM (active)"},
      {"measurement": "Ki", "setting": "[10]", "value": "> 3160 nM (inactive)"},
      {"measurement": "Ki", "setting": "[11]", "value": "> 1580 nM (inactive)"},
      {"measurement": "Ki", "setting": "[12]", "value": "10 nM (active)"},
      {"measurement": "Ki", "setting": "[13]", "value": "> 1260 nM (inactive)"},
      {"measurement": "Ki", "setting": "[14]", "value": "3160 nM (active)"},
      {"measurement": "Ki", "setting": "[15]", "value": "> 3980 nM (inactive)"},
      {"measurement": "Ki", "setting": "[16]", "value": "> 1580 nM (inactive)"},
      {"measurement": "Ki", "setting": "[17]", "value": "3980 nM (active)"},
      {"measurement": "Ki", "setting": "Insulin receptor", "value": "> 5010 nM (inactive)"},
      {"measurement": "Ki", "setting": "[18]", "value": "> 2000 nM (inactive)"},
      {"measurement": "Ki", "setting": "[19]", "value": "126 nM (active)"},
      {"measurement": "Ki", "setting": "[20]", "value": "> 3160 nM (inactive)"},
      {"measurement": "Ki", "setting": "[21]", "value": "> 1580 nM (inactive)"},
      {"measurement": "Ki", "setting": "[22]", "value": "1260 nM (active)"},
      {"measurement": "Ki", "setting": "[23]", "value": "126 nM (active)"},
      {"measurement": "Ki", "setting": "[24]", "value": "316 nM (active)"},
      {"measurement": "Ki", "setting": "[25]", "value": "7940 nM (active)"},
      {"measurement": "Ki", "setting": "[26]", "value": "50.1 nM (active)"},
      {"measurement": "Ki", "setting": "Ephrin type-A receptor 2", "value": "> 3160 nM (inactive)"},
      {"measurement": "Ki", "setting": "[27]", "value": "501 nM (active)"},
      {"measurement": "Ki", "setting": "[28]", "value": "3160 nM (active)"},
      {"measurement": "Ki", "setting": "[29]", "value": "31.6 nM (active)"},
      {"measurement": "Ki", "setting": "Aurora kinase B", "value": "1260 nM (active)"},
      {"measurement": "Ki", "setting": "[30]", "value": "5.01 nM (active)"},
      {"measurement": "Ki", "setting": "[31]", "value": "631 nM (active)"},
      {"measurement": "Ki", "setting": "[32]", "value": "> 794 nM (inactive)"},
      {"measurement": "Ki", "setting": "[33]", "value": "1580 nM (active)"},
      {"measurement": "Ki", "setting": "[34]", "value": "316 nM (active)"},
      {"measurement": "Ki", "setting": "[35]", "value": "> 398 nM (inactive)"},
      {"measurement": "Ki", "setting": "[36]", "value": "316 nM (active)"},
      {"measurement": "Ki", "setting": "[37]", "value": "200 nM (active)"},
      {"measurement": "Ki", "setting": "[38]", "value": "> 5010 nM (inactive)"},
      {"measurement": "Ki", "setting": "[39]", "value": "> 3980 nM (inactive)"},
      {"measurement": "Ki", "setting": "[40]", "value": "631 nM (active)"},
      {"measurement": "Ki", "setting": "[41]", "value": "31.6 nM (active)"},
      {"measurement": "Ki", "setting": "[42]", "value": "7.94 nM (active)"}
    ]}
  ]
}
